Reference: patent US9309263B2, “Fused multi-cyclic sulfone compounds as inhibitors of beta-secretase and methods of use thereof” (AMGEN INC., priority 2013, dated 2016)
Read-outs that look alike come from different tables or passages of the source.

Legend:
[1] = target: Beta Secretase enzyme (BACE) (Homo sapiens, UniProt P56817); experiment: In vitro enzymatic BACE FRET assay; assay type: biochemical; details: read-out: BACE1 FRET assay IC50
In short: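 Cleavage of a quenched 50 nM FRET peptide substrate, read as fluorescence (excitation 488 nm, […]) after 1 h and Tris quench to neutrality. Buffer: 0.05 M acetate pH 4.2 with 10% DMSO and 100 uM genapol. Inhibitor dilutions were pre-incubated 1 h with 0.2 nM enzyme.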

[2] = tested on: Aβ 40 in conditioned medium of cells stably expressing Amyloid Precursor Protein (APP); experiment: In vitro BACE cell-based assay (Aβ 40 sandwich ELISA); details: Homo sapiens, HEK293
In short: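 Aβ40 in conditioned medium measured by pAb40/biotin-6E10 sandwich ELISA with time-resolved europium fluorescence, after 24 h exposure of stable APP cells to compounds (10-point series starting 100 μM or 10 μM; 0.1% DMSO). IC50 fitted from percent of control against concentration.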

Cathepsin D (Cat D) = Cathepsin D (Cat D) (Homo sapiens, UniProt P07339); experiment: In vitro enzymatic Cathepsin D (Cat D) FRET assay; assay type: biochemical
In short: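 FRET peptide substrate (20 nM) is cleaved by CHO-derived recombinant enzyme (9 nM) for 1 h after a 1 h inhibitor pre-incubation, at pH 3.5 in citrate buffer with 5 mM CHAPS and 10% DMSO. Tris addition ends the reaction; fluorescence measured at 500 nm excitation, 580 nm emission.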

[3] = text summary referring to data in Table 2
[4] = average IC50, in vitro enzymatic BACE FRET assay
[5] = average IC50, HEK cell assay, Aβ 40 readout
[6] = Cathepsin D FRET assay, read-out: CatD IC50

Sequence of Beta Secretase enzyme (BACE) (P56817 46-501): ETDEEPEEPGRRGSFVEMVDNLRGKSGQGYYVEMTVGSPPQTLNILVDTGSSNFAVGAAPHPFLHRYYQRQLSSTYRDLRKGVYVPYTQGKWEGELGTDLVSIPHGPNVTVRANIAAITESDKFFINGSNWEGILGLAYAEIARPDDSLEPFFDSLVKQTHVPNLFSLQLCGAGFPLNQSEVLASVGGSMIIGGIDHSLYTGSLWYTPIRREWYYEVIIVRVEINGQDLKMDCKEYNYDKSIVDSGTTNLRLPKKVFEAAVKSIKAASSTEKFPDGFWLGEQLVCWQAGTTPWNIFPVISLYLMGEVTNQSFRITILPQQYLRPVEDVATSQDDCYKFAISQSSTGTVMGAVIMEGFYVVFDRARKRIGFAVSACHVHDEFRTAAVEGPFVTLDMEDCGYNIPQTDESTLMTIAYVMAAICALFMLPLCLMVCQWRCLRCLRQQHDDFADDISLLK
Sequence of Cathepsin D (Cat D) (P07339 65-412, species assumed): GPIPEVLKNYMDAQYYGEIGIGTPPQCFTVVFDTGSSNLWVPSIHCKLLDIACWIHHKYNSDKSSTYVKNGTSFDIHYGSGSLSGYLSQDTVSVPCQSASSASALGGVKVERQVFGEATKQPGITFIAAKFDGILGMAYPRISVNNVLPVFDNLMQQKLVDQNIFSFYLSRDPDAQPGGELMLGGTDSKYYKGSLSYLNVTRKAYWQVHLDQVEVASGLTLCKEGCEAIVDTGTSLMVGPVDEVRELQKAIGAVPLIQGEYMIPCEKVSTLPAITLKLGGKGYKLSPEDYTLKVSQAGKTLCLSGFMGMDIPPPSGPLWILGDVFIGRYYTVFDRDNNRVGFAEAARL

IC50 ([1]; average IC50) | IC50 ([2]; HEK cells, average IC50) | IC50 (Cathepsin D (Cat D); read-out: CatD IC50) | IC50 ([2]; HEK cell, average IC50) | IC50 (Cathepsin D (Cat D); [3]) | IC50 [1, 4] | IC50 [2, 5] | IC50 (Cathepsin D (Cat D); [6]) | Structure (SMILES)
0.018 µM | – | 5550 µM | 0.005 µM | > 1200 µM | – | – | – | Cc1cc(OC(F)F)cnc1C(=O)Nc1ccc2c(c1)[C@@]1(C)N=C(N)C(C)(C)S(=O)(=O)[C@@H]1CCC2 [Example 41, N-((4aR,11bR)-2-amino-3,3,11b-trimethyl-4,4-dioxido-3,4a,5,6,7,11b-hexahydrobenzo[3,4]cyclohepta[1,2-b][1,4]thiazin-10-yl)-5-(difluoromethoxy)-3-methyl-2-pyridinecarboxamide]
0.062 µM | – | > 400 µM | 0.29 µM | – | – | – | – | CC1(C)C(N)=N[C@]2(C)c3cc(NC(=O)c4ncc(Cl)cc4Cl)ccc3CCC[C@@H]2S1(=O)=O [Example 36, N-((4aS,11bR)-2-amino-3,3,11b-trimethyl-4,4-dioxido-3,4a,5,6,7,11b-hexahydrobenzo[3,4]cyclohepta[1,2-b][1,4]thiazin-10-yl)-3,5-dichloro-2-pyridinecarboxamide]
0.028 µM | – | > 400 µM | 0.008 µM | – | – | – | – | Cc1c(C(=O)Nc2ccc3c(c2)[C@@]2(C)N=C(N)C(C)(C)S(=O)(=O)[C@@H]2CCO3)nc2ccc(Cl)cn12 [Example 28, N-((4aR,11bR)-2-amino-3,3,11b-trimethyl-4,4-dioxido-4a,5,6,11b-tetrahydro-3H-[1]benzoxepino[4,5-b][1,4]thiazin-10-yl)-6-chloro-3-methylimidazo[1,2-a]pyridine-2-carboxamide]
0.002 µM | 0.002 µM | 1070 µM | – | – | – | – | – | CC1(C)C(N)=N[C@]2(C)c3cc(NC(=O)c4ncc(C#N)cc4Cl)ccc3OCC[C@H]2S1(=O)=O [Example 174, N-((4aR,11bR)-2-amino-3,3,11b-trimethyl-4,4-dioxido-4a,5,6,11b-tetrahydro-3H-[1]benzoxepino[4,5-b][1,4]thiazin-10-yl)-3-chloro-5-cyano-2-pyridinecarboxamide]
0.011 µM | – | 1390 µM | 0.005 µM | > 1200 µM | – | – | – | COc1ccc(C(=O)Nc2ccc3c(c2)[C@@]2(C)N=C(N)C(C)(C)S(=O)(=O)[C@@H]2C[C@H](C)O3)nc1 [Example 72, N-((4aR,6S,11bR)-2-amino-3,3,6,11b-tetramethyl-4,4-dioxido-4a,5,6,11b-tetrahydro-3H-[1]benzoxepino[4,5-b][1,4]thiazin-10-yl)-5-methoxy-2-pyridinecarboxamide]
0.036 µM | – | > 400 µM | 0.016 µM | – | – | – | – | Cc1cc(C#N)cnc1C(=O)Nc1ccc2c(c1)[C@@]1(C)N=C(N)C(C)(C)S(=O)(=O)[C@H]1CCC2 [Example 37, N-((4aS,11bR)-2-amino-3,3,11b-trimethyl-4,4-dioxido-3,4a,5,6,7,11b-hexahydrobenzo[3,4]cyclohepta[1,2-b][1,4]thiazin-10-yl)-5-cyano-3-methyl-2-pyridinecarboxamide]
0.001 µM | – | 461 µM | 0.0004 µM | – | – | – | – | CC#CCOc1cnc(C(=O)Nc2ccc3c(c2)[C@@]2(C)N=C(N)C(C)(C)S(=O)(=O)[C@@H]2C[C@H](C)O3)cn1 [Example 51, N-((4aR,6S,11bR)-2-amino-3,3,6,11b-tetramethyl-4,4-dioxido-4a,5,6,11b-tetrahydro-3H-[1]benzoxepino[4,5-b][1,4]thiazin-10-yl)-5-(2-butyn-1-yloxy)-2-pyrazinecarboxamide]
0.003 µM | 0.005 µM | 90.4 µM | – | – | – | – | – | Cc1cc(Cl)cnc1C(=O)Nc1ccc2c(c1)[C@@]1(C)N=C(N)C(C)(C)S(=O)(=O)[C@@H]1C[C@@H](C)O2 [Example 180, N-((4aR,6R,11bR)-2-amino-3,3,6,11b-tetramethyl-4,4-dioxido-4a,5,6,11b-tetrahydro-3H-[1]benzoxepino[4,5-b][1,4]thiazin-10-yl)-5-chloro-3-methyl-2-pyridinecarboxamide]

The next lines start with the compound.

Structure (SMILES) | IC50 ([1]; average IC50) | IC50 ([2]; HEK cells, average IC50) | IC50 (Cathepsin D (Cat D); read-out: CatD IC50) | IC50 ([2]; HEK cell, average IC50) | IC50 (Cathepsin D (Cat D); [3]) | IC50 [1, 4] | IC50 [2, 5] | IC50 (Cathepsin D (Cat D); [6])
CC1(C)C(N)=N[C@]2(C)c3cc(NC(=O)c4cnc(OCC(F)(F)F)cn4)ccc3OCC[C@H]2S1(=O)=O [Example 169, N-((4aR,11bR)-2-amino-3,3,11b-trimethyl-4,4-dioxido-4a,5,6,11b-tetrahydro-3H-[1]benzoxepino[4,5-b][1,4]thiazin-10-yl)-5-(2,2,2-trifluoroethoxy)-2-pyrazinecarboxamide] | 0.001 µM | 0.004 µM | 1620 µM | – | – | – | – | –
Cc1cc(Cl)cnc1C(=O)Nc1cnc2c(c1)[C@@]1(C)N=C(N)C3(CCC3)S(=O)(=O)[C@@H]1CCO2 [Example 59, N-((4a′R,11b′R)-2′-amino-11b′-methyl-4′,4′-dioxido-4a′,5′,6′,11b′-tetrahydrospiro[cyclobutane-1,3′-pyrido[3′,2′:6,7]oxepino[4,5-b][1,4]thiazin]-10′-yl)-5-chloro-3-methyl-2-pyridinecarboxamide] | 0.05 µM | – | > 400 µM | 0.057 µM | – | – | – | –
CC#C[C@H](C)Oc1ccc(C(=O)Nc2ccc3c(c2)[C@@]2(C)N=C(N)C(C)(C)S(=O)(=O)[C@@H]2CCO3)nc1 (single isomer, unassigned) [Example 69] | 0.081 µM | – | 811 µM | 1.01 µM | – | – | – | –
Cc1cc(C(F)(F)F)cnc1C(=O)Nc1ccc2c(c1)[C@@]1(C)N=C(N)C(C)(C)S(=O)(=O)[C@]1(F)CCO2 [Example 93, N-((4aR,11bR)-2-amino-4a-fluoro-3,3,11b-trimethyl-4,4-dioxido-4a,5,6,11b-tetrahydro-3H-[1]benzoxepino[4,5-b][1,4]thiazin-10-yl)-3-methyl-5-(trifluoromethyl)-2-pyridinecarboxamide] | – | – | – | – | – | 0.011 µM | 0.054 µM | 513 µM
CC1(C)C(N)=N[C@]2(C)c3cc(Nc4ncc(F)c5cc(C#N)cnc45)ccc3OCC[C@H]2S1(=O)=O [Example 171, 8-(((4aR,11bR)-2-amino-3,3,11b-trimethyl-4,4-dioxido-4a,5,6,11b-tetrahydro-3H-[1]benzoxepino[4,5-b][1,4]thiazin-10-yl)amino)-5-fluoro-1,7-naphthyridine-3-carbonitrile] | 0.003 µM | 0.01 µM | > 14.8 µM | – | – | – | – | –
Cc1nc(OCC(F)F)cnc1C(=O)Nc1ccc2c(c1)[C@@]1(C)N=C(N)C(C)(C)S(=O)(=O)[C@@H]1CCO2 [Example 91, N-((4aR,11bR)-2-amino-3,3,11b-trimethyl-4,4-dioxido-4a,5,6,11b-tetrahydro-3H-[1]benzoxepino[4,5-b][1,4]thiazin-10-yl)-5-(2,2-difluoroethoxy)-3-methyl-2-pyrazinecarboxamide] | – | – | – | – | > 1200 µM | 0.019 µM | 0.027 µM | 1870 µM
COc1cnc(C(=O)Nc2ccc3c(c2)[C@@]2(C)N=C(N)C(C)(C)S(=O)(=O)[C@@H]2CCO3)cn1 [Example 166, N-((4aR,11bR)-2-amino-3,3,11b-trimethyl-4,4-dioxido-4a,5,6,11b-tetrahydro-3H-[1]benzoxepino[4,5-b][1,4]thiazin-10-yl)-5-methoxy-2-pyrazinecarboxamide] | 0.017 µM | 0.0074 µM | 1130 µM | – | – | – | – | –
Cc1cc(C(F)(F)F)cnc1C(=O)Nc1ccc2c(c1)[C@@]1(CF)N=C(N)C(C)(C)S(=O)(=O)[C@@H]1CCO2 [Example 119, N-((4aR,11bS)-2-amino-11b-(fluoromethyl)-3,3-dimethyl-4,4-dioxido-4a,5,6,11b-tetrahydro-3H-[1]benzoxepino[4,5-b][1,4]thiazin-10-yl)-3-methyl-5-(trifluoromethyl)-2-pyridinecarboxamide] | – | – | – | – | – | 0.024 µM | 0.019 µM | 3360 µM
CC#CCOc1cnc(C(=O)Nc2ccc3c(c2)[C@@]2(C)N=C(N)C(C)(C)S(=O)(=O)[C@H]2CC(C)(C)O3)cn1 [Example 102, N-((4aS,11bR)-2-amino-3,3,6,6,11b-pentamethyl-4,4-dioxido-4a,5,6,11b-tetrahydro-3H-[1]benzoxepino[4,5-b][1,4]thiazin-10-yl)-5-(2-butyn-1-yloxy)-2-pyrazinecarboxamide] | – | – | – | – | – | 0.001 µM | 0.002 µM | 284 µM
COc1cnc2c(Nc3ccc4c(c3)[C@@]3(C)N=C(N)C(C)(C)S(=O)(=O)[C@@H]3CCO4)ncnc2c1 [Example 162, (4aR,11bR)-N^~10^~-(7-methoxypyrido[3,2-d]pyrimidin-4-yl)-3,3,11b-trimethyl-4a,5,6,11b-tetrahydro-3H-[1]benzoxepino[4,5-b][1,4]thiazine-2,10-diamine 4,4-dioxide] | 0.007 µM | 0.009 µM | 619 µM | – | – | – | – | –
CC1(C)C(N)=N[C@]2(CF)c3cc(NC(=O)c4ccc(OC(F)F)cn4)ccc3OCC[C@@H]2S1(=O)=O [Example 122, N-((4aS,11bS)-2-amino-11b-(fluoromethyl)-3,3-dimethyl-4,4-dioxido-4a,5,6,11b-tetrahydro-3H-[1]benzoxepino[4,5-b][1,4]thiazin-10-yl)-5-(difluoromethoxy)-2-pyridinecarboxamide] | – | – | – | – | – | 0.011 µM | 0.013 µM | 1030 µM
Cc1cc(C#N)cnc1C(=O)Nc1ccc2c(c1)[C@@]1(C)N=C(N)C(C)(C)S(=O)(=O)[C@]1(F)CCO2 [Example 111, N-((4aR,11bR)-2-amino-4a-fluoro-3,3,11b-trimethyl-4,4-dioxido-4a,5,6,11b-tetrahydro-3H-[1]benzoxepino[4,5-b][1,4]thiazin-10-yl)-5-cyano-3-methyl-2-pyridinecarboxamide] | – | – | – | – | – | 0.005 µM | 0.019 µM | 331 µM
